Source: PubChem BioAssay AID330 (DTP/NCI, 2004)
Several values for one entry are separate records, joined by “and”; a condition that tells them apart may be missing. Equal values may be shown once. Inconclusive results and toxic doses are left out.

System: P388 leukemia ip, CD2F1 mice, survival T/C
Assay: NCI In Vivo Anticancer Drug Screen. Data for tumor model P388 Leukemia (intraperitoneal) in CD2F1 (CDF1) mice
Conditions: endpoint: median survival time, higher = longer survival
Summary of the method: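 Mice carrying the transplanted tumor received test compound or vehicle. Survival was recorded in each group, and the value is the treated-group measurement divided by that of the vehicle-treated control group.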

[1] = dose: 50.0 mg/kg/injection, schedule: Q01DX005 (ip), vehicle: saline with Tween-80
[2] = dose: 100.0 mg/kg/injection, schedule: Q01DX005 (ip), vehicle: saline with Tween-80
[3] = dose: 200.0 mg/kg/injection, schedule: Q01DX005 (ip), vehicle: saline with Tween-80
[4] = dose: 6.25 mg/kg/injection, schedule: Q01DX009 (ip), vehicle: water
[5] = dose: 12.5 mg/kg/injection, schedule: Q01DX009 (ip), vehicle: water
[6] = dose: 50.0 mg/kg/injection, schedule: Q04DX002 (ip), vehicle: saline with Tween-80
[7] = dose: 50.0 mg/kg/injection, schedule: Q01DX009 (ip), vehicle: Klucel (hydroxypropylcellulose) (HPC)
[8] = dose: 100.0 mg/kg/injection, schedule: Q01DX009 (ip), vehicle: Klucel (hydroxypropylcellulose) (HPC)
[9] = dose: 200.0 mg/kg/injection, schedule: Q01DX009 (ip), vehicle: Klucel (hydroxypropylcellulose) (HPC)
[10] = dose: 50.0 mg/kg/injection, schedule: Q01DX005 (ip), vehicle: Klucel (hydroxypropylcellulose) (HPC)
[11] = dose: 100.0 mg/kg/injection, schedule: Q01DX005 (ip), vehicle: Klucel (hydroxypropylcellulose) (HPC)

Cc1ccc(-n2nnc(-c3ccc(Cl)c(Cl)c3)n2)cc1
T/C [1]: 103 % of control | T/C [2]: 103 % of control | T/C [3]: 100 % of control

COc1cccc2c1C(=O)c1c(O)c3c(c(O)c1C2=O)C[C@@](O)(C(O)CO)C[C@@H]3OC1CC(N)C(O)C(C)O1 (some centres undefined)
T/C (dose: 0.78 mg/kg/injection, schedule: Q01DX009 (ip), vehicle: water): 155 % of control and 150 % of control | T/C (dose: 1.56 mg/kg/injection, schedule: Q01DX009 (ip), vehicle: water): 174 % of control and 168 % of control | T/C (dose: 2.0 mg/kg/injection, schedule: Q01DX009 (ip), vehicle: water): 183 % of control | T/C (dose: 3.13 mg/kg/injection, schedule: Q01DX009 (ip), vehicle: water): 192 % of control and 200 % of control | T/C (dose: 4.0 mg/kg/injection, schedule: Q01DX009 (ip), vehicle: water): 211 % of control | T/C [4]: 260 % of control and 197 % of control and 264 % of control | T/C (dose: 6.25 mg/kg/injection, schedule: Q04DX003 (ip), vehicle: water): 116 % of control | T/C (dose: 8.0 mg/kg/injection, schedule: Q01DX009 (ip), vehicle: water): 266 % of control | T/C [5]: 95 % of control | T/C (dose: 16.0 mg/kg/injection, schedule: Q01DX009 (ip), vehicle: water): 94 % of control | T/C (dose: 25.0 mg/kg/injection, schedule: Q04DX003 (ip), vehicle: water): 198 % of control | T/C (dose: 50.0 mg/kg/injection, schedule: Q04DX003 (ip), vehicle: water): 172 % of control

CCCCOC(=O)N(CCCl)N=O
T/C (dose: 1.25 mg/kg/injection, schedule: Q01DX009 (ip), vehicle: saline with Tween-80): 119 % of control | T/C (dose: 2.5 mg/kg/injection, schedule: Q01DX009 (ip), vehicle: saline with Tween-80): 108 % of control | T/C (dose: 5.0 mg/kg/injection, schedule: Q01DX009 (ip), vehicle: saline with Tween-80): 98 % of control

CN=C(N)NN=C(c1ccc(F)cc1)c1ccc(F)cc1
T/C (dose: 12.5 mg/kg/injection, schedule: Q04DX002 (ip), vehicle: saline with Tween-80): 100 % of control and 106 % of control | T/C [6]: 87 % of control

COc1ccc2c(c1)C(NCCCCCCNc1cc(C)[n+](C)c3ccc(OC)cc13)=CC(C)N2C (centres undefined)
T/C (dose: 25.0 mg/kg/injection, schedule: Q01DX005 (ip), vehicle: saline with Tween-80): 113 % of control | T/C [1]: 118 % of control

O=C(O)CCSC1=CC(=O)c2ccccc2C1=O
T/C (dose: 6.25 mg/kg/injection, schedule: Q04DX003 (ip), vehicle: gum acacia): 115 % of control | T/C (dose: 12.5 mg/kg/injection, schedule: Q04DX003 (ip), vehicle: gum acacia): 110 % of control

NNS(=O)(=O)c1ccccc1
T/C (dose: 50.0 mg/kg/injection, schedule: Q01DX009 (ip), vehicle: saline with Tween-80): 103 % of control | T/C (dose: 100.0 mg/kg/injection, schedule: Q01DX009 (ip), vehicle: saline with Tween-80): 103 % of control

Cc1cccc(N=Nc2ccc(N=Nc3c(O)ccc4ccccc34)cc2C)c1
T/C [7]: 97 % of control | T/C [8]: 100 % of control | T/C [9]: 100 % of control

CCOC(=O)COC1=NN(c2cccc(C(F)(F)F)c2)CC1
T/C (dose: 100.0 mg/kg/injection, schedule: Q04DX003 (ip), vehicle: Klucel (hydroxypropylcellulose) (HPC)): 110 % of control | T/C (dose: 200.0 mg/kg/injection, schedule: Q04DX003 (ip), vehicle: Klucel (hydroxypropylcellulose) (HPC)): 110 % of control | T/C (dose: 400.0 mg/kg/injection, schedule: Q04DX003 (ip), vehicle: Klucel (hydroxypropylcellulose) (HPC)): 109 % of control

COc1ccc2cc1CCNC(=O)C1CCCN1C(=O)C1NCCC1O2 (centres undefined)
T/C (dose: 20.0 mg/kg/injection, schedule: Q01DX005 (ip), vehicle: Klucel (hydroxypropylcellulose) (HPC)): 92 % of control | T/C (dose: 40.0 mg/kg/injection, schedule: Q01DX005 (ip), vehicle: Klucel (hydroxypropylcellulose) (HPC)): 104 % of control | T/C (dose: 80.0 mg/kg/injection, schedule: Q01DX005 (ip), vehicle: Klucel (hydroxypropylcellulose) (HPC)): 107 % of control

Cc1cccc(C(=O)OCCBr)c1
T/C (dose: 18.75 mg/kg/injection, schedule: Q01DX009 (ip), vehicle: saline sonified): 104 % of control | T/C (dose: 37.5 mg/kg/injection, schedule: Q01DX009 (ip), vehicle: saline sonified): 109 % of control | T/C (dose: 49.5 mg/kg/injection, schedule: Q01DX009 (ip), vehicle: saline sonified): 109 % of control | T/C (dose: 75.0 mg/kg/injection, schedule: Q01DX009 (ip), vehicle: saline sonified): 104 % of control | T/C (dose: 112.5 mg/kg/injection, schedule: Q01DX009 (ip), vehicle: saline sonified): 104 % of control

CC1(C)CC2(CC3(C1)SCCS3)OCCO2
T/C (dose: 100.0 mg/kg/injection, schedule: Q04DX003 (ip), vehicle: saline with Tween-80): 98 % of control | T/C (dose: 200.0 mg/kg/injection, schedule: Q04DX003 (ip), vehicle: saline with Tween-80): 99 % of control | T/C (dose: 400.0 mg/kg/injection, schedule: Q04DX003 (ip), vehicle: saline with Tween-80): 97 % of control

N#CC1OC1c1ccc[n+]([O-])c1 (centres undefined)
T/C (dose: 1.56 mg/kg/injection, schedule: Q01DX005 (ip), vehicle: saline): 94 % of control | T/C (dose: 3.12 mg/kg/injection, schedule: Q01DX005 (ip), vehicle: saline): 105 % of control | T/C (dose: 6.25 mg/kg/injection, schedule: Q01DX005 (ip), vehicle: saline): 100 % of control | T/C (dose: 12.5 mg/kg/injection, schedule: Q01DX005 (ip), vehicle: saline): 101 % of control

CCc1nc(N)nc(N)c1-c1ccc(N(C)C)c(N)c1
T/C [10]: 100 % of control | T/C [11]: 96 % of control

CCOc1cc2c(cc1OC)c[n+](C)c1c3cc(OC)c(OC)cc3ccc21
T/C (dose: 10.0 mg/kg/injection, schedule: Q01DX009 (ip), vehicle: water): 122 % of control

CC(=O)C1CC[C@@]2(C)C(CC[C@H]3[C@@H]4CCC[C@H]([C@H](C)O)[C@@]4(C)CC[C@@H]32)C1 (some centres undefined)
T/C (dose: 12.5 mg/kg/injection, schedule: Q01DX009 (ip), vehicle: Klucel (hydroxypropylcellulose) (HPC)): 91 % of control | T/C (dose: 25.0 mg/kg/injection, schedule: Q01DX009 (ip), vehicle: Klucel (hydroxypropylcellulose) (HPC)): 91 % of control | T/C [7]: 88 % of control

CCCCCN(CCC)CCCCCCCCCN1CCCc2cc(OC)ccc21
T/C (dose: 50.0 mg/kg/injection, schedule: Q01DX005 (ip), vehicle: saline + Tween-80 + alcohol): 105 % of control | T/C (dose: 100.0 mg/kg/injection, schedule: Q01DX005 (ip), vehicle: saline + Tween-80 + alcohol): 110 % of control

COc1ccc2c(c1)OC(C)(C)C(c1ccccc1)C2c1ccc(O)c([N+](=O)[O-])c1 (centres undefined)
T/C [10]: 109 % of control | T/C [11]: 101 % of control

O=NNc1ncc(Sc2ccccc2)nc1Sc1ccccc1
T/C [4]: 103 % of control | T/C [5]: 113 % of control | T/C (dose: 25.0 mg/kg/injection, schedule: Q01DX009 (ip), vehicle: water): 122 % of control | T/C (dose: 100.0 mg/kg/injection, schedule: Q01DX009 (ip), vehicle: water): 106 % of control

CN(c1ccccc1)C(C#N)c1n[nH]c(=O)[nH]1 (centres undefined)
T/C (dose: 25.0 mg/kg/injection, schedule: Q04DX002 (ip), vehicle: saline with Tween-80): 100 % of control | T/C [6]: 100 % of control | T/C (dose: 100.0 mg/kg/injection, schedule: Q04DX002 (ip), vehicle: saline with Tween-80): 93 % of control

CSc1ccccc1N1C(=O)CSC1=S
T/C [7]: 108 % of control | T/C [8]: 96 % of control | T/C [9]: 89 % of control

CCCN(C)C(=O)N(CCCl)N=O
T/C (dose: 16.0 mg/kg/injection, schedule: Q01DX001 (ip), vehicle: water): 166 % of control | T/C (dose: 32.0 mg/kg/injection, schedule: Q01DX001 (ip), vehicle: water): 240 % of control

CN(C)C1C(O)C2Oc3c(cc(O)c4c3C(=O)c3cc5c(c(O)c3C4=O)C(OCC3COC(C)(C)O3)CC(C)(O)C5)C(C)(O2)C1O (centres undefined)
T/C (dose: 2.0 mg/kg/injection, schedule: Q01DX009 (ip), vehicle: other): 105 % of control | T/C (dose: 4.0 mg/kg/injection, schedule: Q01DX009 (ip), vehicle: other): 117 % of control | T/C (dose: 8.0 mg/kg/injection, schedule: Q01DX009 (ip), vehicle: other): 123 % of control | T/C (dose: 16.0 mg/kg/injection, schedule: Q01DX009 (ip), vehicle: other): 123 % of control

CCc1nc(N)nc(N)c1-c1ccc2c(c1)nnn2C1CCCCC1
T/C [1]: 100 % of control | T/C [2]: 100 % of control | T/C [3]: 87 % of control

CCOSN1CCOCC1
T/C (dose: 25.0 mg/kg/injection, schedule: Q04DX002 (ip), vehicle: saline): 101 % of control | T/C (dose: 50.0 mg/kg/injection, schedule: Q04DX002 (ip), vehicle: saline): 101 % of control | T/C (dose: 100.0 mg/kg/injection, schedule: Q04DX002 (ip), vehicle: saline): 100 % of control and 93 % of control
